Experiments:
[1] = tested on: Human umbilical vein endothelial cells (HUVECs); experiment: HDL-induced endothelial NO release, DAN assay; format: cell-based; settings: HDL 50 μg/ml preincubated 3 h with 10, 20, 50 μg/ml; HUVECs 2 h
Protocol: HUVECs were stimulated for 2 h with HDL (50 μg/ml) preincubated with DMSO, lyso-DGTS and S1P at final concentrations of 10, 20, and 50 μg/ml for 3 h. Media were then collected and treated with nitrate reductase followed by analysis using the DAN assay. Data are expressed as NO concentration (μM) released by the cells. Each experiment was repeated separately at least three times. *p<0.05, ***p<0.0001 related to the control (HDL without lyso-DGTS or S1P). Statistics were analyzed using one-way annova Graphpad prism 5 software.
Human umbilical vein endothelial cells (HUVECs) were incubated for 2 hours with HDL preincubated with different concentration of lyso-DGTS or S1P for 3 hours, and NO production determined using 2,3-diaminonapthalene (DAN) assay.

J774A.1 macrophages = settings: as previously shown; cited from earlier work
rePON1 = settings: 25° C.; Cohen et al., 2014; cited from earlier work
PON1 = PON1 (Homo sapiens, UniProt P27169); settings: Cohen et al., 2014; cited from earlier work
Sequence of PON1 (P27169 whole entry, species assumed): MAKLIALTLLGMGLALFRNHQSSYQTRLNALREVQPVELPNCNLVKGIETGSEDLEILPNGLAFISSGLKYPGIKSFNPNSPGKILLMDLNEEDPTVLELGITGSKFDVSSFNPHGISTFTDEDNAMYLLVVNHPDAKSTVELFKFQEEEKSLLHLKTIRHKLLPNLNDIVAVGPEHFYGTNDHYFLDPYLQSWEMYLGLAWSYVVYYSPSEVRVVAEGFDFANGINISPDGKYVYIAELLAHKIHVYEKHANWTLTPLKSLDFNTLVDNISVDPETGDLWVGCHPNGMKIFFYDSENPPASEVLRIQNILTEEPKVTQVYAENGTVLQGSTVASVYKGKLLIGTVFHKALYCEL

Row | Compound | effect on HDL ability to induce endothelial NO release [1] | effect on PON1 uptake by macrophage cells (J774A.1 macrophages) | Binding constant Ka to PON1 (rePON1) | decrease of the ratio between HDL-PON1 and free-PON1 (PON1)
1 | CCCCCCCCCCCCC/C=C/[C@@H](O)[C@@H](N)COP(=O)(O)O [S1P, Sphingosine 1-Phosphate, reference compound] | significantly increased the HDL ability to induce endothelial NO release at a dose dependent manner | – | – | –
2 | PC 16:0 18:2 | – | enhance PON1 uptake by macrophage cells | 1680 M⁻¹ | 50%
